In patent US20210093607A1, “ANTITUMOR NANO-DRUG” (SICHUAN YUANNING BIOLOGICAL TECHNOLOGY CO., LTD., priority 2018, published 2021):
Structures can show the parent of a compound that is named as a salt.

Experiments:
[1] = test system: Human gingival fibroblasts (HGF); assay type: cell-based; conditions: MTT, 48 h
Method: Human gingival fibroblasts (HGF) in logarithmic growth active phase were selected and inoculated in 96-well plates. […] Different concentration gradients were set for each group, and 5 parallel samples were set for each concentration Untreated cells were set as blank control group. After incubation for 48 h, the old culture medium was removed, and 100 μL fresh medium containing 10% (v/v) MTT was added to each well. After incubation for another 2 h, the culture media was removed and 150 μL dimethyl sulfoxide/well was added. After shaking for 2 min, the absorbance of the solution was measured at 490 nm by using a microplate reader Varioscan Flash and cell viability was calculated.
Untreated cells were set as blank control group. After 48 h of culture, the old culture medium was removed, and 100 μL of culture medium containing 10% (v/v) MTT was added to each well. After incubation for 2 h, 150 μL DMSO was added to each well, and the absorbance at 490 nm was measured with a microplate reader for 2 min, and the cell survival rate was calculated.

SW480 cells [2] = assay: Determination of superoxide anion in mitochondria; assay type: cell-based, human; conditions: SW480, 1 mM, incubation 4 h, laser confocal
Method: Determination of superoxide anion (O2^+) in mitochondria: SW480 cells in logarithmic growth active phase were prepared into cell suspension and added into 6-well plate (5×10^5 cells/well). […] After incubation for 4 h, the old culture medium was removed and 1 mL of fluorescent amine dye (50 μM) was added. After incubation for 2 h, cysteine was added to make the final concentration to be 200 μM. After incubation for 0.5 h, culture medium was removed and cells were washed with Krebs buffer for 3 times, then mitochondrial red dye was added to proceed mitochondrial staining for 30 min, and cells were washed with 37°C. medium for 3 times. Finally, the emission of fluorescent amine at 440-480 nm was detected by laser confocal to quantify […], and the emission of mitochondrial red dye at 590-650 nm was detected to locate mitochondria in cells.
Determination of superoxide anion (O2^+) in mitochondria: SW480 cells in logarithmic growth active phase were prepared into cell suspension and added into 6-well plate (5×10^5 cells/well). […] Finally, the emission of fluorescent amine at 440-480 nm was detected by laser confocal to quantify O2^+, and the emission of mitochondrial red dye at 590-650 nm was detected to locate mitochondria in cells.

Caspase-3 = assay: Determination of Caspase-3 activity; assay type: cell-based, human; conditions: SW480, 1 mM, incubation 24 h, relative to blank control
Method: Determination of Caspase-3 activity: SW480 cells in logarithmic growth active phase were prepared into cell suspension and added into 6-well plate (4×10^5 cells/well). […] After incubation for 24 h, the old culture medium was removed and cells were collected and then centrifuged for 5 min (1200 rpm/min) at 4°C. The cells were washed with cold PBS twice, and the supernatant was sucked up as much as possible every time. 100 μL of cell lysate containing 1 mM phenylmethylsulfonyl fluoride (PMSF, protease inhibitor) was added to the collected cells, which were placed on ice for 30 min and vortex once every 5 min. […] 20 μL supernatant was taken for detection with Caspase-3 activity detection kit, and the absorbance value at A405 nm or A400 was measured by microplate reader. According to the absorbance ratio of material group cells to blank control group cells, the relative Caspase-3 activity degree was calculated.
Determination of Caspase-3 activity: SW480 cells in logarithmic growth active phase were prepared into cell suspension and added into 6-well plate (5×10^5 cells/well). […] 20 μL supernatant was taken for detection with Caspase-3 activity detection kit, and the absorbance value at A405 nm or A400 nm was measured by microplate reader. According to the absorbance ratio of material group cells to blank control group cells, the relative Caspase-3 activity degree was calculated.

SW480 cells [3] = assay: Determination of mitochondrial membrane potential (JC-1); assay type: cell-based, human; conditions: SW480, 1 mM, incubation 24 h, JC-1, flow cytometry
Method: Determination of mitochondrial membrane potential: SW480 cells in logarithmic growth active phase were prepared into cell suspension and added into 6-well plate (5×10^5 cells/well). […] After incubation for 24 h, the old culture medium was removed, and the cells of each group were collected and centrifuged to obtain pure cells. 1 mL working solution of mitochondrial membrane potential detection kit (JC-1) was added to the collected cells, and then they were mixed thoroughly and incubated for 20 min. Then the mixture was centrifuged at 4°C. to remove working solution, and the cells were washed twice with JC-1 staining buffer (1×) on ice. Finally, 500 μL staining buffer was added to disperse the cells to obtain a cell suspension, and the change of mitochondrial membrane potential was detected by flow cytometry.
Determination of mitochondrial membrane potential: SW480 cells in logarithmic growth active phase were prepared into cell suspension and added into 6-well plate (5×10^5 cells/well). After incubation for 24 h, cells were treated with 1 mM hydroxyurea, 1 mM cLAVs and 1 mM nano-drug XI, respectively, and ntreated cells were set as blank control group. […] Finally, 500 μL staining buffer was added to disperse the cells to obtain a cell suspension, and the change of mitochondrial membrane potential was detected by flow cytometry.

SW480 cells [4] = assay: Determination of cytochrome C release (western blot); assay type: cell-based, human; conditions: SW480, 1 mM, incubation 24 h
Method: Determination of cytochrome C release: SW480 cells in logarithmic growth active phase were prepared into cell suspension and added into 6-well plate (5×10^5 cells/well). […] After incubation for 24 h, the old culture medium was removed and cells were collected. The collected cells were centrifuged (1200 rpm/min) for 5 min at 4°C., and the supernatant was removed. The cells were washed with cold PBS twice, and die supernatant was sucked up as much as possible every lime. 100 μL of cell lysate containing 1 mM phenylmethylsulfonyl fluoride (PMSF, protease inhibitor) was added to the collected cells, which were placed on ice for 30 min and vortex once every 5 min. Then the mixture was centrifuged at 12000 rpm at 4°C. for 60 min, and the supernatant was quickly collected in another clean centrifuge tube, 20 μL supernatant was taken to analyze the content of cytochrome C in cytoplasm by western blot.
Determination of cytochrome C release: SW480 cells in logarithmic growth active phase were prepared into cell suspension and added into 6-well plate (5×10^5 cells/well). After incubation for 24 h, cells were treated with […], 1 mM cLAVs and 1 mM nano-drug XI, respectively, and untreated cells were set as blank control group. After incubation for 24 h, the old culture medium was removed and cells were collected. […]

[5] = test system: Subcutaneous SW480 xenograft model; assay: In vivo antitumor assessment, subcutaneous SW480 xenograft; parameters: species or system BALB/c nude mice; conditions: SW480 xenograft nude mice; LA/cLAVs 10 mg/kg, Hydrea 6 mg/kg; once every 3 days, 8 times
From the text: Subcutaneous SW480 xenograft model was established in BALB/c nude mice (about 20 g each) of 4 weeks old.

| SMILES | toxicity to normal cells (cell viability) [1] | relative superoxide anion level in mitochondria (SW480 cells [2]) | relative Caspase-3 activity (Caspase-3) | mitochondrial membrane potential loss (SW480 cells [3]) | cytochrome C release into cytoplasm (SW480 cells [4]) | tumor inhibition effect (tumor volume) [5] |
| --- | --- | --- | --- | --- | --- | --- |
| COc1cccc2c1C(=O)c1c(O)c3c(c(O)c1C2=O)C[C@@](O)(C(=O)CO)C[C@@H]3O[C@H]1C[C@H](N)[C@H](O)[C@H](C)O1 [DOX.HCl, doxorubicin hydrochloride] | can kill normal cells at very low doses | – | – | – | – | – |
| Nc1ccn([C@@H]2O[C@H](CO)[C@@H](O)C2(F)F)c(=O)n1 [Gem.HCl, gemcitabine hydrochloride] | can kill normal cells at very low doses | – | – | – | – | – |
| O=C(O)CCCC[C@@H]1CCSS1 [LA, (R)-(+)-lipoic acid] | – | can induce mitochondria to produce O2^+ | can stimute the relative activity of Caspase-3 | can induce the decrease of mitochondrial membrane potential | – | – |
| NC(=O)NO [hydroxyurea] | – | can all induce mitochondria to produce O2^+ | can stimulate the relative activity of Caspase-3 | can all induce the decrease of mitochondrial membrane potential | promote the release of cytochrome C from the mitochondria to the cytoplasm | good tumor inhibition effect |
